What all share (assay type): in vivo, mouse
One data set relates to L1210 U.S.A. The experiment in a line: antitumor activity on leukemia L1210 U.S.A., products of examples 33-39, I.P. The protocol:
The experiments were always carried out on female mice which were specific pathogen-free (S. P. F.),
either of the line DBA/2JIco
or of the line B6 D2 F1/JIco (first generation hybrids between the lines C57BL/6 and DBA/2).
On the day of the graft (by convention day 0=D0) an inoculum of 1×10^5 tumor cells in a volume of 0.2 ml is administered to each mouse by the intraperitoneal route (I.P.).
This inoculum is prepared by diluting ascites fluid taken from the peritoneum of a donor female mouse in NCTC 109 medium (Eurobio Laboratories, Paris, France), counting of the cells in a MALASSEZ cell under a microscope and adjustment of the concentration to 5×10^5cells […] by means of the same medium.
The tumor line is an American strain of the line L1210.
After the tumor graft, the mice are distributed at random in cages of 5 animals. Subsequently, these cages containing 5 mice are themselves distributed at random into a control group (control) and groups treated with the I.C. products.
(§1) The doses of the products of the invention used in the different experiments are expressed in milligrams per kilogram of body weight.
(§2) The products to be injected were dissolved in isotonic sodium chloride solution.
2 protocols for treatment were used in the different experiments:
either a single injection on D1, by the intraperitoneal (I.P.) or intravenous (I.V.) route,
(§3) or 3 I.P. injections on D1, D5, D9.
(§4) In each experiment the animals of the control group received 1 or more injections, depending on the experimental protocol used, by the same route (I.P. or I.V.) of the same volume (0.2 ml/20 g) of the vehicle without the active principle (isotonic sodium chloride solution).
(§5) the number and percentage of the total of the mice surviving to D60,
(§6) the T/C×100 for the treated groups.
(§7) T representing the mean survival time of the mice in the treated group,
(§8) C representing the mean survival time of the mice in the control group (controls).

A further data set has as its system melanoma B16. The experiment in a line: antitumor activity on melanoma B16, products of examples 33-39, I.P. Particulars: B6 D2 F1, I.P. D1, D5, D9, 3×10 mg/kg. As to the method:
The experiments are always carried out on SPF female mice, B6 D2 F1/JIco (first generation hybrids between the lines C57BL/6 and DBA/2).
On the day of the graft (day 0), an inoculum of 2×10^6 tumor cells in a volume of 0.5 ml is administered to each mouse by the intraperitoneal route (I.P.). This inoculum is prepared from a sub-cutaneous tumor excised from a donor female mouse. After excision the tumor is fragmented by means of a pair of scissors in the NCTC 109 medium. After filtration through sterile gauze in order to remove large cellular fragments, the homogeneous cell suspension obtained is counted by means of a MALASSEZ cell and diluted to the desired concentration (4×10^6tumor cells per ml) by dilution with the NCTC 109 medium.
This was performed in the manner described for the leukemia L1210 (see above).
as §1, §2, §3, §4, §5, §6, §7, §8

Data set [1] is described as follows: toxicological results, single I.P. dose, DL0 and DL50. Particulars: mice. The text has this:
DL0, DL50, single I.P. dose administered to the aforementioned strains of mice.

[2] abbreviates: B6 D2 F1, I.P. D1, D5, D9, 3×1.25 mg/kg.
The mark [3] stands for this setting: B6 D2 F1, I.P. D1, D5, D9, 3×5 mg/kg.
Setting [4] is: B6 D2 F1, I.P. D1, D5, D9, 3×10 mg/kg.
The mark [5] stands for this setting: DBA2, I.P. D1, D5, D9, 3×5 mg/kg.

Where only a bound is given, the exact number is not on record here.

What is called LD50 is the dose at which mortality reaches 50%. Low values mean a more toxic substance, high ones a less toxic substance. Take `CO[C@@H]1O[C@H](C)C[C@H](NC(=O)N(CCCl)N=O)[C@H]1O` [IC. 85-1591, methyl 3-[3-(2-chloroethyl) 3-nitrosoureido] 3,4,6-trideoxyβ-D-xylo-hexopyranoside]: the Number of survivors in the data set with L1210 U.S.A. (setting [2]) is 0/10; in the data set on L1210 U.S.A. (setting [3]), 2/10; in the data set with melanoma B16 it was 3/10. Further, the T/C is reported as 116 in the data set on L1210 U.S.A. (setting [2]); 217 in the data set on L1210 U.S.A. (setting [3]); 600 with L1210 U.S.A. (setting [4]); greater than 600 with L1210 U.S.A. (DBA2, I.P. D1, 1×20 mg/kg); greater than 600 in the data set with L1210 U.S.A. (setting [5]); 194 in the data set with melanoma B16. Besides, the “Number of survivors on D60” value is 8/10 with L1210 U.S.A. (setting [4]); 7/10 in the data set on L1210 U.S.A. (DBA2, I.P. D1, 1×20 mg/kg); 6/10 with L1210 U.S.A. (setting [5]). In data set [1], this molecule displayed a DL0 of no less than 20 mg/kg. The molecule further showed an LD50 in data set [1] (mouse, in vivo, ip) of roughly 40 mg/kg.
